From PubChem BioAssay (NCI)
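These data come from cells grown in 96-well plates and exposed to compound for 48 hours at five concentrations. At the TGI there is no net growth.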

Tests used:
Assay in all cases: NCI tumour cell line growth inhibition, 48 h
786-0 renal = tested on: 786-0 renal
A549 NSCLC = tested on: A549 NSCLC
ACHN renal = tested on: ACHN renal
CAKI-1 renal = tested on: CAKI-1 renal
CCRF-CEM leukemia = tested on: CCRF-CEM leukemia
COLO 205 colon = tested on: COLO 205 colon
DLD-1 colon = tested on: DLD-1 colon
DMS 114 small cell lung = tested on: DMS 114 small cell lung
DMS 273 small cell lung = tested on: DMS 273 small cell lung
HCC-2998 colon = tested on: HCC-2998 colon
HCT-116 colon = tested on: HCT-116 colon
HL-60(TB) leukemia = tested on: HL-60(TB) leukemia
HOP-18 NSCLC = tested on: HOP-18 NSCLC
HOP-62 NSCLC = tested on: HOP-62 NSCLC
HOP-92 NSCLC = tested on: HOP-92 NSCLC
HT29 colon = tested on: HT29 colon
IGROV1 ovarian = tested on: IGROV1 ovarian
K-562 leukemia = tested on: K-562 leukemia
KM12 colon = tested on: KM12 colon
LOX IMVI melanoma = tested on: LOX IMVI melanoma
LXFL 529 NSCLC = tested on: LXFL 529 NSCLC
M14 melanoma = tested on: M14 melanoma
M19-MEL melanoma = tested on: M19-MEL melanoma
MALME-3M melanoma = tested on: MALME-3M melanoma
MOLT-4 leukemia = tested on: MOLT-4 leukemia
NCI-H23 lung = tested on: NCI-H23 lung
NCI-H460 lung = tested on: NCI-H460 lung
NCI-H522 lung = tested on: NCI-H522 lung
OVCAR-3 ovarian = tested on: OVCAR-3 ovarian
OVCAR-4 ovarian = tested on: OVCAR-4 ovarian
OVCAR-5 ovarian = tested on: OVCAR-5 ovarian
OVCAR-8 ovarian = tested on: OVCAR-8 ovarian
RXF 393 renal = tested on: RXF 393 renal
RXF-631 renal = tested on: RXF-631 renal
SF-268 CNS = tested on: SF-268 CNS
SF-295 CNS = tested on: SF-295 CNS
SF-539 CNS = tested on: SF-539 CNS
SK-MEL-28 melanoma = tested on: SK-MEL-28 melanoma
SK-MEL-5 melanoma = tested on: SK-MEL-5 melanoma
SN12C renal = tested on: SN12C renal
SNB-19 CNS = tested on: SNB-19 CNS
SNB-75 CNS = tested on: SNB-75 CNS
SNB-78 CNS = tested on: SNB-78 CNS
SR leukemia = tested on: SR leukemia
SW-620 colon = tested on: SW-620 colon
TK-10 renal = tested on: TK-10 renal
U251 CNS = tested on: U251 CNS
UACC-257 melanoma = tested on: UACC-257 melanoma
UACC-62 melanoma = tested on: UACC-62 melanoma
UO-31 renal = tested on: UO-31 renal
XF 498 CNS = tested on: XF 498 CNS
A498 renal = tested on: A498 renal
EKVX NSCLC = tested on: EKVX NSCLC
HCT-15 colon = tested on: HCT-15 colon
KM20L2 colon = tested on: KM20L2 colon
NCI-H226 lung = tested on: NCI-H226 lung
RPMI-8226 leukemia = tested on: RPMI-8226 leukemia
SK-MEL-2 melanoma = tested on: SK-MEL-2 melanoma
SK-OV-3 ovarian = tested on: SK-OV-3 ovarian

In the case of O=S1(=O)CSc2ccc3ccccc3c2-c2c1ccc1ccccc21, the TGI (786-0 renal) is reported as > 100 µM, the TGI (A549 NSCLC) is reported as > 100 µM and the TGI (ACHN renal) is reported as > 100 µM. The TGI (CAKI-1 renal) was > 100 µM, the TGI (CCRF-CEM leukemia) was > 100 µM and the TGI (COLO 205 colon) was > 100 µM. For the same compound, the TGI (DLD-1 colon) was > 100 µM, the TGI (DMS 114 small cell lung) was > 100 µM and the TGI (DMS 273 small cell lung) was > 100 µM. The TGI (HCC-2998 colon) was > 100 µM, the TGI (HCT-116 colon) was > 100 µM and the TGI (HL-60(TB) leukemia) was > 100 µM. For the same compound, the TGI (HOP-18 NSCLC) was > 100 µM, the TGI (HOP-62 NSCLC) was > 100 µM and the TGI (HOP-92 NSCLC) was > 100 µM. The TGI (HT29 colon) was > 100 µM, the TGI (IGROV1 ovarian) was > 100 µM and the TGI (K-562 leukemia) was > 100 µM. For the same compound, the TGI (KM12 colon) was > 100 µM, the TGI (LOX IMVI melanoma) was > 100 µM and the TGI (LXFL 529 NSCLC) was > 100 µM. The TGI (M14 melanoma) was > 100 µM, the TGI (M19-MEL melanoma) was > 100 µM and the TGI (MALME-3M melanoma) was > 100 µM. For the same compound, the TGI (MOLT-4 leukemia) was > 100 µM, the TGI (NCI-H23 lung) was > 100 µM and the TGI (NCI-H460 lung) was > 100 µM. For the same compound, the TGI (NCI-H522 lung) was > 100 µM, the TGI (OVCAR-3 ovarian) was > 100 µM and the TGI (OVCAR-4 ovarian) was > 100 µM. For the same compound, the TGI (OVCAR-5 ovarian) was > 100 µM, the TGI (OVCAR-8 ovarian) was > 100 µM and the TGI (RXF 393 renal) was > 100 µM. For the same compound, the TGI (RXF-631 renal) was > 100 µM, the TGI (SF-268 CNS) was > 100 µM and the TGI (SF-295 CNS) was > 100 µM. For the same compound, the TGI (SF-539 CNS) was > 100 µM, the TGI (SK-MEL-28 melanoma) was > 100 µM and the TGI (SK-MEL-5 melanoma) was > 100 µM. For the same compound, the TGI (SN12C renal) was > 100 µM, the TGI (SNB-19 CNS) was > 100 µM and the TGI (SNB-75 CNS) was > 100 µM. For the same compound, the TGI (SNB-78 CNS) was > 100 µM, the TGI (SR leukemia) was > 100 µM and the TGI (SW-620 colon) was > 100 µM. For the same compound, the TGI (TK-10 renal) was > 100 µM, the TGI (U251 CNS) was > 100 µM and the TGI (UACC-257 melanoma) was > 100 µM. For the same compound, the TGI (UACC-62 melanoma) was > 100 µM, the TGI (UO-31 renal) was > 100 µM and the TGI (XF 498 CNS) was > 100 µM.
With CC(C)(C)c1ccccc1NS(=O)(=O)c1ccccc1 the TGI (786-0 renal) was > 100 µM, the TGI (A498 renal) was > 100 µM and the TGI (A549 NSCLC) was > 100 µM. For the same compound, the TGI (ACHN renal) was > 100 µM, the TGI (CAKI-1 renal) was > 100 µM and the TGI (CCRF-CEM leukemia) was > 100 µM. For the same compound, the TGI (DMS 114 small cell lung) was > 100 µM, the TGI (DMS 273 small cell lung) was > 100 µM and the TGI (EKVX NSCLC) was > 100 µM. For the same compound, the TGI (HCC-2998 colon) was > 100 µM, the TGI (HCT-116 colon) was > 100 µM and the TGI (HCT-15 colon) was > 100 µM. For the same compound, the TGI (HL-60(TB) leukemia) was > 100 µM, the TGI (HOP-62 NSCLC) was > 100 µM and the TGI (HT29 colon) was > 100 µM. The TGI (IGROV1 ovarian) was > 100 µM, the TGI (K-562 leukemia) was > 100 µM and the TGI (KM12 colon) was > 100 µM. The TGI (KM20L2 colon) was > 100 µM, the TGI (LXFL 529 NSCLC) was > 100 µM and the TGI (M14 melanoma) was > 100 µM. For the same compound, the TGI (M19-MEL melanoma) was > 100 µM, the TGI (MALME-3M melanoma) was > 100 µM and the TGI (MOLT-4 leukemia) was > 100 µM. For the same compound, the TGI (NCI-H226 lung) was 88.2 µM, the TGI (NCI-H23 lung) was > 100 µM and the TGI (NCI-H460 lung) was > 100 µM. The TGI (OVCAR-3 ovarian) was > 100 µM, the TGI (OVCAR-4 ovarian) was > 100 µM and the TGI (OVCAR-5 ovarian) was > 100 µM. For the same compound, the TGI (OVCAR-8 ovarian) was > 100 µM, the TGI (RPMI-8226 leukemia) was > 100 µM and the TGI (RXF 393 renal) was > 100 µM. The TGI (RXF-631 renal) was > 100 µM, the TGI (SF-295 CNS) was > 100 µM and the TGI (SF-539 CNS) was > 100 µM. For the same compound, the TGI (SK-MEL-2 melanoma) was > 100 µM, the TGI (SK-MEL-28 melanoma) was > 100 µM and the TGI (SK-MEL-5 melanoma) was > 100 µM. For the same compound, the TGI (SK-OV-3 ovarian) was > 100 µM, the TGI (SN12C renal) was > 100 µM and the TGI (SNB-75 CNS) was > 100 µM. The TGI (SNB-78 CNS) was > 100 µM, the TGI (SW-620 colon) was > 100 µM and the TGI (TK-10 renal) was > 100 µM. The TGI (U251 CNS) was > 100 µM, the TGI (UACC-257 melanoma) was > 100 µM and the TGI (UACC-62 melanoma) was > 100 µM. For the same compound, the TGI (UO-31 renal) was > 100 µM and the TGI (XF 498 CNS) was > 100 µM.
